Data on one substance can be found in paper PMC5529531, “Engineered isopeptide bond stabilized fibrin inspired nanoscale peptide based sealants for efficient blood clotting” (Scientific Reports, 2017).

Several values for one entry are separate records, joined by “and”; a condition that tells them apart may be missing. Identical values can stand only once.

The test deals with platelet-free plasma. Description: Thrombin clotting time experiment with platelet-free plasma. To be noted: 0.35 mL chicken platelet-free plasma at 37 °C + 0.15 mL sealant solution (peptide 1.5 mM in 25 mM PBS pH 7.4, 5 mM CaCl2, 10 µL TG 7 U/mL) or thrombin-calcium reagent; mean ± SD of two independent experiments. As to the method: Plasma was collected by centrifuging whole non-coagulated chicken blood (4500 rpm, 10 min, 4 °C). Thrombin clotting time (Figure S19) experiment was performed by incubating 0.35 mL platelet-free plasma, in a 1.5 mL microcentrifuge tube at 37 °C for 10 min, followed by the addition of the thrombin-calcium reagent, 0.15 mL, maintained at room temperature. The period of clot formation was noted. The same batch of platelet-free plasma was used to determine sealant clotting time. Platelet-free plasma 0.35 mL, was taken in a 1.5 mL microcentrifuge tube incubated at 37 °C followed by addition of 0.15 mL sealant solution. Sealant was prepared by dissolving each peptide in 25 mM PBS buffer, pH 7.4 with 5 mM CaCl2 where final conc. of the peptide was 1.5 mM followed by the addition of 10 µL TG (7 U/1 mL) soln. The period of clot formation was noted. The results are represented as mean ± SD of two independent experiments.
Figure S19. Determination of clotting time of sealants with plasma by thrombin clotting time method. The clotting time in presence of thrombin, sealants 1, 2 and 3 are 32±2, 35±1, 25±1 and 28±2 secs, respectively.

For “thrombin: thrombin (bovine plasma), used as thrombin-calcium reagent”, the “clotting time (thrombin clotting time experiment)” value was 32±2 secs and ~ 32 ± 2 secs.
